In PubChem BioAssay AID1552 (Sanford-Burnham Center for Chemical Genomics, 2009):
The source made the active and inactive calls. No rule for the calls is given here.

Each compound was assayed against Ubiquitin-conjugating enzyme E2 N (Homo sapiens) (UniProt P61088) (assay: UBE2N binders by NMR, biophysical, purified protein (AID 1552)). Settings: NMR binding to purified UBE2N.
Ubiquitin-conjugating enzyme E2 N (Homo sapiens), sequence (P61088 whole entry, looked up): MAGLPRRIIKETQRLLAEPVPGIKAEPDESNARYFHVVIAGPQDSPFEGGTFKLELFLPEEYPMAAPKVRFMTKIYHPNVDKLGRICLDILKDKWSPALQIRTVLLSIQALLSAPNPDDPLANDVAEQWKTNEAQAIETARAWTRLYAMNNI

| Compound | Kd |
| --- | --- |
| CC(=O)NC1C(=O)Nc2c(C)cc(C)cc21 (centres undefined) | > 4 mM (inactive) |
| O=C(O)C1C(=O)NCC1c1ccccc1 (centres undefined) | > 4 mM (inactive) |
| CNC(=S)Nc1ccc2c(c1)OCO2 | > 4 mM (inactive) |
| COC(=O)Nc1c(C)n(C)n(-c2ccccc2)c1=O | > 4 mM (inactive) |
| O=C(O)C1=Cc2ccccc2OC1 | > 4 mM (inactive) |
| O=C(CC1NCCNC1=O)Nc1ccccc1 (centres undefined) | > 4 mM (inactive) |
| NN1C(=O)CSC1=Nc1ccccc1 | > 4 mM (inactive) |
| NC(=O)c1cc(N)cc(C(N)=O)c1 | > 4 mM (inactive) |
| CC(=O)c1c(C)nc(-c2ccc(Cl)cc2Cl)n1O | > 4 mM (inactive) |
| CCOC(=O)c1sc(SC)c2c1CCCC2O (centres undefined) | > 4 mM (inactive) |
| Cc1ccc(C(=O)N2CCC(C(N)=O)CC2)cc1C | > 4 mM (inactive) |
| O=C(Oc1ccc2c(c1)CCC2)N1CCOCC1 | > 4 mM (inactive) |
| COc1c(O)cc2oc3cc(O)c(CC=C(C)C)c(O)c3c(=O)c2c1CC=C(C)C | > 4 mM (inactive) |
| O=C(Nc1ccncc1)Nc1ccc(F)cc1F | > 4 mM (inactive) |
| CC(=O)N1CCn2c3c(c(=O)c4cc(C)ccc42)CCC31 (centres undefined) | > 4 mM (inactive) |
| CN1CCN(C(=O)/C=C\C(=O)O)CC1 | > 4 mM (inactive) |
| CC(=O)c1csc(-c2cc(C)on2)n1 | > 4 mM (inactive) |
| CC(=O)Nc1ccc(S(=O)(=O)NCC2CCCO2)cc1 (centres undefined) | > 4 mM (inactive) |
| COCC(=O)Nc1ccc(C)c(Cl)c1 | > 4 mM (inactive) |
| Cc1ncc(C[n+]2csc3ccccc32)c(N)n1 | > 4 mM (inactive) |
| Cc1occc1C(=O)N1CCC2(CC1)OCCO2 | > 4 mM (inactive) |
| CC(=O)c1cc2c(s1)SCC(=O)N2 | > 4 mM (inactive) |
| CC(C)C(=O)NC(=S)N1CCOCC1 | > 4 mM (inactive) |
| Oc1ccccc1-c1cc(C(F)(F)F)[nH]n1 | > 4 mM (inactive) |
| O=C1CN(c2ccccc2)CC(=O)N1 | > 4 mM (inactive) |

| Compound | Kd |
| --- | --- |
| COC(CC(=O)O)c1nc2ccccc2s1 (centres undefined) | > 4 mM (inactive) |
| Cc1ccn(S(=O)(=O)c2ccc(F)cc2)n1 | > 4 mM (inactive) |
| c1cncc(Nc2nc(-c3cccnc3)cs2)c1 | > 4 mM (inactive) |
| N#Cc1cc2ccccc2nc1N | > 4 mM (inactive) |
| CNC(=S)Nc1cccc(C(=O)O)c1 | > 4 mM (inactive) |
| CN1CCN(CC(O)c2ccccc2)CC1 (centres undefined) | > 4 mM (inactive) |
| NC(N)=NOCC[C@H](N)C(=O)O | > 4 mM (inactive) |
| COCc1cc(=O)oc2cc(N)ccc12 | > 4 mM (inactive) |
| O=C(O)CCCCCCCC(=O)O | > 4 mM (inactive) |
| O=C(O)c1cncc(-c2cccs2)c1 | > 4 mM (inactive) |
| COc1ccc(-c2coc3cc(O)ccc3c2=O)c(OC)c1 | > 4 mM (inactive) |
| O=C(/C=C/c1ccco1)NC1=NCCS1 | > 4 mM (inactive) |
| C#CCCCCCCCCCCCC(O)CC(O)COC(C)=O (centres undefined) | > 4 mM (inactive) |
| O=C(O)C1=CCCNC1 | > 4 mM (inactive) |
| CN(C)N1C(=O)C2CCCCC2C1=O (centres undefined) | > 4 mM (inactive) |
| CP(C)(=O)c1cccc(C(=O)O)c1 | > 4 mM (inactive) |
| CN1CCN(C(=O)C2CCCNC2)CC1 (centres undefined) | > 4 mM (inactive) |
| Cn1cccc1C(=O)NS(=O)(=O)c1ccccc1Cl | > 4 mM (inactive) |
| O=C(O)c1[nH]nc2c1COc1ccccc1-2 | > 4 mM (inactive) |
| O=C(NCc1cccs1)c1nc2ncccn2n1 | > 4 mM (inactive) |
| C=Cc1c(C)c2cc3[nH]c(cc4nc(cc5nc(cc1[nH]2)C(C)=C5CCC(=O)O)C(CCC(=O)O)=C4C)c(C)c3C=C | > 4 mM (inactive) |
| Cc1ccccc1-n1c(N)cc(=O)[nH]c1=S | > 4 mM (inactive) |
| C=CCc1cc(C(=O)N2CCCCC2)ccc1O | > 4 mM (inactive) |
| COc1nc(C)ccc1-c1noc(-c2ccco2)n1 | > 4 mM (inactive) |
| O=C(O)C12CC3CC(CC(O)(C3)C1)C2 | > 4 mM (inactive) |

| Compound | Kd |
| --- | --- |
| O=c1[nH]c2sc3c(c2c2nncn12)CCCC3 | > 4 mM (inactive) |
| CN1CCN(c2ccc(N)cc2)CC1 | > 4 mM (inactive) |
| Cc1nc2c(n1O)CCc1c-2no[n+]1[O-] | > 4 mM (inactive) |
| CC(C)NC(=O)Cc1c(O)c2ccccc2[nH]c1=O | > 4 mM (inactive) |
| Nc1cccc(S(=O)(=O)N2CCCC2)c1 | > 4 mM (inactive) |
| COc1ccc2c(c1)=C(c1sc(N)nc1O)C(=O)N=2 | > 4 mM (inactive) |
| CN(C)S(=O)(=O)c1ccc(N2CCOCC2)nc1 | > 4 mM (inactive) |
| Cn1c(=O)c2[nH]cnc2n(C)c1=O | > 4 mM (inactive) |
| CC(C)(C)c1cc(N)n[nH]1 | > 4 mM (inactive) |
| CN1CCN(C(=O)c2ccco2)CC1 | > 4 mM (inactive) |
| Cc1cc(NC(=O)CCCn2cnc([N+](=O)[O-])n2)no1 | > 4 mM (inactive) |
| COc1cc(C(=S)N2CCOCC2)ccc1O | > 4 mM (inactive) |
| COc1cc(C(C)=O)ccc1OCC(O)Cn1ccnc1 (centres undefined) | > 4 mM (inactive) |
| Cc1ccc(/C=C/C(=O)O)cc1S(=O)(=O)NCCO | > 4 mM (inactive) |
| COc1cc2c(c(OC)c1OC)-c1ccc(O)c(=O)cc1[C@@H](NC(C)=O)CC2 | > 4 mM (inactive) |
| Cn1c(SCC(N)=O)nnc1-c1c[nH]c2ccccc12 | > 4 mM (inactive) |
| Nc1ccccc1N1CCOCC1 | > 4 mM (inactive) |
| COc1c(OC)c2occc2c2oc(=O)ccc12 | > 4 mM (inactive) |
| CC(C)(C)c1cc(NC(=O)c2cccnc2)no1 | > 4 mM (inactive) |
| Cc1nn(-c2ccccc2)c(Cl)c1C(N)=O | > 4 mM (inactive) |
| O=C1CSC(c2ccccc2)N1 (centres undefined) | > 4 mM (inactive) |
| CCC(/C=C/[C@@H](C)[C@H]1CCC2C3CC=C4C[C@@H](O)CC[C@]4(C)C3CC[C@@]21C)C(C)C (some centres undefined) | > 4 mM (inactive) |
| Cc1cc(/C=N/O)nc(=O)[nH]1 | > 4 mM (inactive) |
| O=C(c1ccccc1-c1ccccc1)N1CCOCC1 | > 4 mM (inactive) |
| O=C(CC1NC(=O)NC1=O)Nc1ccccc1 (centres undefined) | > 4 mM (inactive) |

| Compound | Kd |
| --- | --- |
| COc1ccc(Cl)cc1-c1nc(-c2ccncc2)no1 | > 4 mM (inactive) |
| O=C(Nc1cccnc1)c1cccs1 | > 4 mM (inactive) |
| NC(=O)CCn1ncc2ccccc21 | > 4 mM (inactive) |
| Cc1ccc(NC(=O)C2CCN(S(C)(=O)=O)CC2)cc1 | > 4 mM (inactive) |
| CC(=O)c1c(O)cc(O)cc1O | > 4 mM (inactive) |
| C=C1CCC(C2CC(=O)OC2=O)C(=O)CCC2C1CC2(C)C (centres undefined) | > 4 mM (inactive) |
| O=C1C(=O)N(CNc2ncccn2)c2ccccc21 | > 4 mM (inactive) |
| c1ccc(-n2cnnc2)nc1 | > 4 mM (inactive) |
| Cc1cc(C)n2nc(NCc3ccccc3)nc2n1 | > 4 mM (inactive) |
| Cn1nc(C(=O)N2CCOCC2)c2ccccc2c1=O | > 4 mM (inactive) |
| Cc1occc1C(=O)Nc1nnc(C2CCCCC2)s1 | > 4 mM (inactive) |
| CCCCCCCCCCCCCCCCCCOCC(O)CO (centres undefined) | > 4 mM (inactive) |
| Cc1ccc(C(=O)Nn2cnnc2)s1 | > 4 mM (inactive) |
| CN1CCC(O)N1C(=O)c1ccccc1O (centres undefined) | > 4 mM (inactive) |
| O=C(CC1CCCCC1)N1CCN(c2ccccn2)CC1 | > 4 mM (inactive) |
| Nc1ccc2ncsc2c1 | > 4 mM (inactive) |
| O=C1CCNc2cc3ccccc3cc21 | > 4 mM (inactive) |
| Cc1cccc(C)c1NC(=O)CN1CCOCC1 | > 4 mM (inactive) |
| O=c1c(O)cccc2cc(O)c(O)c(O)c12 | > 4 mM (inactive) |
| O=C(O)c1ccc(N2CCCCC2)cc1 | > 4 mM (inactive) |
| O=C(NCc1cccc(Cl)c1)c1cccnc1 | > 4 mM (inactive) |
| O=c1[nH]cc(S(=O)(=O)Nc2ccccc2)c(=O)[nH]1 | > 4 mM (inactive) |
| CNC(=O)C1COc2ccccc2O1 (centres undefined) | > 4 mM (inactive) |
| C=C1C(=O)O[C@@H]2C3OC3(C)CC/C=C(\C)CC[C@@H]12 (some centres undefined) | > 4 mM (inactive) |
| O=C(NC(=S)NC1CCS(=O)(=O)C1)c1ccccc1 (centres undefined) | > 4 mM (inactive) |

| Compound | Kd |
| --- | --- |
| COc1ccc(N=C2NC(=O)CS2)cc1 | > 4 mM (inactive) |
| O=[N+]([O-])c1ccc2c(c1)N([O-])C1(CCCCC1)[N+]2=O | > 4 mM (inactive) |
| CC(=O)NCC1OCCc2ccccc21 (centres undefined) | > 4 mM (inactive) |
| CC(=O)Oc1c(C)c(C)c2c(c1C)CCC(C)(CCCC(C)CCCC(C)CCCC(C)C)O2 (centres undefined) | > 4 mM (inactive) |
| NN1C(=O)/C(=C/c2ccc(O)c(O)c2)SC1=S | > 4 mM (inactive) |
| CCc1ccc2oc(-c3cc(N)cc(C)c3O)nc2c1 | > 4 mM (inactive) |
| COc1ccc(-c2cc(=O)c3c(OC(C)=O)cc(OC(C)=O)cc3o2)cc1 | > 4 mM (inactive) |
| CCC(C)C(NC)C(=O)O (centres undefined) | > 4 mM (inactive) |
| S=c1nc[nH]c2c1cnn2-c1ccccc1 | > 4 mM (inactive) |
| COC(=O)C1CCN(c2ccc(Cl)nn2)CC1 | > 4 mM (inactive) |
| CN(c1ccccc1C(=O)N1CCOCC1)S(C)(=O)=O | > 4 mM (inactive) |
| C=CC(C)(O)CC/C=C(\C)CCC=C(C)C (centres undefined) | > 4 mM (inactive) |
| CC(=O)Oc1c(C)cc(O)c2ccccc12 | > 4 mM (inactive) |
| CN(C)Cc1c(N)cccc1O | > 4 mM (inactive) |
| COC1=CC(=O)C[C@@H](C)[C@]12Oc1c(Cl)c(OC)cc(OC)c1C2=O | > 4 mM (inactive) |
| Cc1cc(C)nc(N2CC(=O)N(C)C2=N)n1 | > 4 mM (inactive) |
| O=C1CCCN1c1ccc(S(=O)O)cc1 | > 4 mM (inactive) |
| COc1cc(-c2coc3cc(OC)c(OC)c(OC)c3c2=O)cc(OC)c1OC | > 4 mM (inactive) |
| O=C(Cc1cccs1)Nc1nncs1 | > 4 mM (inactive) |
| Nc1cc(=O)[nH]c(=S)n1-c1cccc(C(F)(F)F)c1 | > 4 mM (inactive) |
| Nc1ccc2c(c1)OCO2 | > 4 mM (inactive) |
| COc1ccc(-c2oc3ccccc3c(=O)c2O)cc1OC | > 4 mM (inactive) |
| Cc1csc(CCc2nc(C)cs2)n1 | > 4 mM (inactive) |
| NC(CSCSCC(N)C(=O)O)C(=O)O (centres undefined) | > 4 mM (inactive) |
